Results as given in patent publication US20020015940A1, “Method of gene expression screening” (priority 2000, published 2002).

Tests used:
E. coli = experiment: toxicity response in the microbial system; type: cell-based; details: system of the present invention; consistent with mammalian cell studies
Method: (§1) 2.0% cultures were grown from saturated overnight cultures at […] with shaking at 260 rpm for 3 hours. A 4.0% inoculum was mixed with […] top agar (10 g/L NaCl, 5.0 g/L yeast extract, 10 g/L tryptone, 7.0 g/L agar) and 10 ml was layered on 150 mm petri dishes containing LB and ampicillin. 10 μl of each drug to be tested was spotted onto the plate and incubated at 35° C. overnight. Colonies were screened when plated onto LB plates containing compounds that are known to activate oxidative stress genes, paraquat and hydrogen peroxide.
(§2) As the drug diffuses through the media, it created a concentration gradient.

[1] = tested on: E. coli harboring the stress probes (soxS and sodA); experiment: high throughput 96-well dose-response of stress probes; type: cell-based; details: for promoter probes turned on (mode of action): FIG. 5A and 5B
Method: 4. 0% cultures of E. coli harboring the stress probes were grown from a saturated overnight culture in 250 ml shake flasks containing 25 ml LB media and 100 μg/ml ampicillin at 35° C. with shaking at 260 rpm until the optical density reached 0.8 at 600 nm. 100 μl aliquots of culture were added to each well of a 96-well plate, along with 10 μl of various concentrations of the drug to be tested and incubated overnight. Experiments were run in duplicate. Fluorescence intensity and optical density measurements were taken using a Wallac 1420 VICTOR multilabel counter.
To test whether the procedure of Example 4 would work in a quantitative high throughput format, an experiment was conducted where the anti-tumor drug DNR was serially diluted and dose-response tested in a 96-well plate. For comparison, a similar experiment was conducted with paraquat.

[2] = tested on: pCRA11, sodA promoter probe construct; experiment: agar plate spotting, zone of induction (green halo); type: cell-based, E. coli; details: higher and varied concentrations of drugs spotted on plate, overnight
Method: as §1, §2

recA promoter probe = experiment: stress probe-GFP fusion fluorescence after oxidative stress; type: cell-based, E. coli; details: varying concentrations of stressor, 4 hours post-stress
Excerpt: (§3) Using GenBank to obtain the genomic sequence for each of the oxidative stress response genes, PCR primers are designed to amplify the promoter region. Generally the target for amplification was approximately 300 base pairs and encompasses the sequence upstream from the native translational start site. […] The entire promoter region flanked by incorporated restriction sites was cloned in frame with GFP on a plasmid. The stress probes were then transformed into E. coli.
(§4) Cells containing each stress probe-GFP fusion were cultured to early log phase, stressed with varying concentrations of paraquat or H2O2, and the fluorescence intensity measured at 4 hours post-stress. Due to the lethality of the higher concentrations of stresses, dividing by optical density (OD) normalized the fluorescence intensity values.

zwf promoter probe = experiment: as above; type: cell-based, E. coli; details: varying concentrations of stressor, 4 hours post-stress
Excerpt: as §3, §4

acnA promoter probe = experiment: as above; type: cell-based, E. coli; details: varying concentrations of stressor, 4 hours post-stress
Excerpt: as §3, §4

dps promoter probe = experiment: as above; type: cell-based, E. coli; details: varying concentrations of stressor, 4 hours post-stress
Excerpt: as §3, §4

sodA promoter probe = experiment: as above; type: cell-based, E. coli; details: varying concentrations of stressor, 4 hours post-stress
Excerpt: as §3, §4

sodA-GFP stress probe = experiment: rate of change of GFP signal; type: cell-based, E. coli; details: continuous stress by bolus of paraquat, FIG. 6
Excerpt: The rate of change of the GFP signal measures the rate of the stress protein induction. This experiment compares the response of the sodA promoter to stresses in the form of a bolus of paraquat in one culture and a transient exposure to hyperoxia in another. A control culture consisting of uninduced sodA:GFP was included for comparison. […] An uninduced culture was included for comparison purposes.
The disadvantages of GFP as a reporter gene are its lag time for fluorescence (approximately 90 minutes) and extraordinary stability. One way to compensate for these is to measure the rate of change of the GFP fluorescence, which is possible using an LED-based sensor that permits continuous in situ measurements. The cell specific rate of change of GFP normalized to optical density is then a measure of the rate of gene expression of the stress protein.

For `CCOC(=O)NC1=C(N2CC2)C(=O)C(NC(=O)OCC)=C(N2CC2)C1=O` [AZQ, diaziquone], the “rank order of toxicity response” value (E. coli) was “MeDZQ, DZQ, and AZQ, were ranked in decreasing order of toxicity response”.
`COc1cccc2c1C(=O)c1c(O)c3c(c(O)c1C2=O)C[C@@](O)(C(C)=O)C[C@@H]3O[C@H]1C[C@H](N)[C@H](O)[C@H](C)O1` [DNR, daunorubicin] was tested, and the “promoter probes turned on (mode of action)” value ([1]; 96-well plate) was “turning on soxS and sodA”, the “toxicity to cells beyond the concentration of maximal response” value ([1]; above 20 μM, 96-well plate) was “becomes toxic and kills cells” and the “concentration at which maximal response is observed” value ([1]; serial dilution in 96-well plate, overnight, FIG. 5A) was 20 µM.
`O=C1C=C(N2CC2)C(=O)C=C1N1CC1` [DZQ] was tested, and the “rank order of toxicity response” value (E. coli) was “MeDZQ, DZQ, and AZQ, were ranked in decreasing order of toxicity response”.
`COc1cccc2c1C(=O)c1c(O)c3c(c(O)c1C2=O)C[C@@](O)(C(=O)CO)C[C@@H]3O[C@H]1C[C@H](N)[C@H](O)[C@H](C)O1` [Doxorubicin, doxorubicin] was tested, and the “induction of sodA promoter probe compared with induction of recA” value [2] was “stronger induction of sodA than its induction of recA”.
`CC1=C(N2CC2)C(=O)C(C)=C(N2CC2)C1=O` [MeDZQ, methyl diaziridinequinone] was tested, and the “rank order of toxicity response” value (E. coli) was “MeDZQ, DZQ, and AZQ, were ranked in decreasing order of toxicity response”.
For `OO` [hydrogen peroxide], the “fluorescence intensity normalized by optical density, recA promoter probe” value (recA promoter probe) was “dose dependent response”, the “fluorescence intensity normalized by optical density, zwf promoter probe” value (zwf promoter probe) was “no inducible response” and the “fluorescence intensity normalized by optical density, acnA promoter probe” value (acnA promoter probe) was “no inducible response”. For the same compound, the “fluorescence intensity normalized by optical density, dps promoter probe” value (dps promoter probe) was “dose dependent response” and the “fluorescence intensity normalized by optical density, sodA promoter probe” value (sodA promoter probe) was “no inducible response”.
`C[n+]1ccc(-c2cc[n+](C)cc2)cc1` [paraquat] was tested, and the “rate of sodA expression (GFP derivative)” value (sodA-GFP stress probe) was “continual gene expression of sodA”, the “fluorescence intensity normalized by optical density, recA promoter probe” value (recA promoter probe) was “do not show a dose dependent response and are only inducible when exposed to higher paraquat concentrations” and the “fluorescence intensity normalized by optical density, zwf promoter probe” value (zwf promoter probe) was “dose dependent response”. The “fluorescence intensity normalized by optical density, acnA promoter probe” value (acnA promoter probe) was “dose dependent response”, the “fluorescence intensity normalized by optical density, dps promoter probe” value (dps promoter probe) was “do not show a dose dependent response and are only inducible when exposed to higher paraquat concentrations” and the “fluorescence intensity normalized by optical density, sodA promoter probe” value (sodA promoter probe) was “dose dependent response”. For the same compound, the “promoter probes turned on (mode of action)” value ([1]; 96-well plate) was “turning on soxS and sodA” and the “shape of dose response” value ([1]; serial dilution in 96-well plate, overnight, FIG. 5B) was “monotonically increasing response”.
